Assay results as given in patent publication US8232317B2, “Method for increasing hair growth” (E-L Management Corp., priority 2003, dated 2012).
Several values for one entry are separate records, joined by “and”; a condition that tells them apart may be missing. Equal entries are not always repeated.

Legend:
[1] = test system: Normal Human Dermal Papilla Cells; test: DNA synthesis ([H]3-thymidine incorporation) in dermal papilla cells; type: cell-based; settings: for [H] counts to denote incorporated Thymidine (relative DNA synthesis): individual replicates
Experimental: Methods: Normal Human Dermal Papilla Cells were obtained from Cell Applications Incorporated (San Diego, Calif.) which isolates the dermal papilla cells from hair plugs. Papilla cells were grown to 70% in 24 well plates. […] These treatments were carried out for 24 hours before [H]^3-Thymidine label (1 μCi/ml) was added in each well. DNA synthesis, an indicator of cell proliferation, was measured 24 hours later as a function of [H]^3-Thymidine incorporation.

hair plugs = test: Hair growth in hair plugs exposed to creatine; type: cell-based; settings: creatine 1 mM; for Actual length of hair plugs / Hair growth normalized to length at day 0: individual plugs; for Average hair growth: n=6
Experimental: Methods: Hair plugs were obtained from East Wood Medical Hair Transplant Surgery (Garden City, N.Y.). These hair plugs were equilibrated in hair plug media as described in the literature (DMEM, 10% FBS, 1% PS, 25 mg insulin, 25 μg fungizone). These hair plugs were measured under the microscope one the first day of arrival and treated with creatine at 1 mM (n=6 for control and creatine group respectively). These hair plugs were then kept in the incubator at 37° C. in 5% CO2. On day 3, 7, & 10, re-treatments were made as well as measurements.

Row | Compound | % increase compared to control (thymidine uptake / DNA synthesis) ([1]; 0.25 mM) [%] | Average thymidine uptake ([1]; 0.25 mM) | [H] counts to denote incorporated Thymidine (relative DNA synthesis) ([1]; 0.25 mM) | % increase compared to control (thymidine uptake / DNA synthesis) ([1]; 0.5 mM) [%] | Average thymidine uptake ([1]; 0.5 mM) | [H] counts to denote incorporated Thymidine (relative DNA synthesis) ([1]; 0.5 mM) | % increase compared to control (thymidine uptake / DNA synthesis) ([1]; 1 mM) [%] | Average thymidine uptake ([1]; 1 mM) | [H] counts to denote incorporated Thymidine (relative DNA synthesis) ([1]; 1 mM) | other results
1 | CN(CC(=O)O)C(=N)N [Creatine, creatine] | 35.66 | 25229.47 | 27441.5 counts and 24848.2 counts and 23398.7 counts | 24.78 | 23206.37 | 21850.6 counts and 23029.9 counts and 24738.6 counts | 5.697 | 19657.6 | 20190.6 counts and 18789.8 counts and 19992.4 counts | % increase compared to control (thymidine uptake / DNA synthesis) ([1]; 0.25 mM, listed as creatine): 36%; % increase compared to control (thymidine uptake / DNA synthesis) ([1]; 0.5 mM, listed as creatine): 25%; % increase compared to control (thymidine uptake / DNA synthesis) ([1]; 1 mM, listed as creatine): 6%; Actual length of hair plugs (hair plugs; Day 0 (baseline)): 3.8 mm and 6.3 mm and 8.1 mm and 8.3 mm and 8.2 mm and 7.6 mm; Average hair growth (hair plugs; Day 0): 0 mm; % increase compared to untreated (hair growth) (hair plugs; Day 3): 96.6%; Actual length of hair plugs (hair plugs; Day 3): 4.7 mm and 7.1 mm and 9.5 mm and 9.1 mm (2×) and 8.5 mm; Hair growth normalized to length at day 0 (hair plugs; Day 3): 0.9 mm (3×) and 0.8 mm (2×) and 1.4 mm; Average hair growth (hair plugs; Day 3): 0.95 mm; % increase compared to untreated (hair growth) (hair plugs; Day 7): 79.5%; Actual length of hair plugs (hair plugs; Day 7): 5 mm and 7 mm and 9.6 mm (2×) and 9.8 mm and 9.2 mm; Hair growth normalized to length at day 0 (hair plugs; Day 7): 1.2 mm and 0.7 mm and 1.5 mm and 1.3 mm and 1.6 mm (2×); Average hair growth (hair plugs; Day 7): 1.32 mm and 1.317 mm; % increase compared to untreated (hair growth) (hair plugs; Day 10): 75.5%; Actual length of hair plugs (hair plugs; Day 10): 5.5 mm and 7 mm and 9.7 mm (2×) and 9.8 mm and 9.2 mm; Hair growth normalized to length at day 0 (hair plugs; Day 10): 1.7 mm and 0.7 mm and 1.6 mm (3×) and 1.4 mm; Average hair growth (hair plugs; Day 10): 1.43 mm and 1.433 mm; Increase in hair growth compared to the untreated plugs (hair plugs; over 10 days): two fold
2 | O=C(O)CC(=O)C(=O)O [Oxaloacetate, oxaloacetic acid (oxaloacetate)] | 22 | 22609.37 | 26907.8 counts and 21897.4 counts and 19022.9 counts | 33 | 24782.97 | 24483.7 counts and 21467.8 counts and 28397.4 counts | 38 | 25586.67 | 25537.3 counts and 25092.4 counts and 26130.3 counts | % increase compared to control (thymidine uptake / DNA synthesis) ([1]; 0.25 mM, listed as Oxal): 21.57%; % increase compared to control (thymidine uptake / DNA synthesis) ([1]; 0.5 mM, listed as Oxal): 33.26%; % increase compared to control (thymidine uptake / DNA synthesis) ([1]; 1 mM, listed as Oxal): 37.58%
3 | Nc1ncnc2c1ncn2[C@@H]1O[C@H](COP(=O)(O)O)[C@@H](O)[C@H]1O [AMP] | 1493 |  |  | 1930 |  |  | 1449 |  |  | 
4 | Nc1ncnc2c1ncn2[C@@H]1O[C@H](COP(=O)(O)OP(=O)(O)OP(=O)(O)O)[C@@H](O)[C@H]1O [ATP] | 1411 |  |  | 1201 |  |  |  |  |  | 
